Data: US11311523B2, “Pyridinone compound and use thereof” (KYUSHU UNIVERSITY, NATIONAL UNIVERSITY CORPORATION, priority 2015, dated 2022)
“Also recorded” adds a separate entry of the source.

Experiments:
[1] = target: T1, DHR-2 domain of DOCK1 (Homo sapiens, UniProt Q14185); assay: in vitro GEF assay (Bodipy-FL-GTP loading of Rac); assay type: biochemical; conditions: from IC50 values for DOCK1, DOCK2, DOCK5
T1 construct: Polypeptide fragments that correspond to the DHR-2 domain of DOCK1, DOCK2, or DOCK5; Histidine-SUMO (N); made in house; host or cells: E. coli Arctic express (DE3)
T1 sequence (Q14185 1207-1617 limits assumed): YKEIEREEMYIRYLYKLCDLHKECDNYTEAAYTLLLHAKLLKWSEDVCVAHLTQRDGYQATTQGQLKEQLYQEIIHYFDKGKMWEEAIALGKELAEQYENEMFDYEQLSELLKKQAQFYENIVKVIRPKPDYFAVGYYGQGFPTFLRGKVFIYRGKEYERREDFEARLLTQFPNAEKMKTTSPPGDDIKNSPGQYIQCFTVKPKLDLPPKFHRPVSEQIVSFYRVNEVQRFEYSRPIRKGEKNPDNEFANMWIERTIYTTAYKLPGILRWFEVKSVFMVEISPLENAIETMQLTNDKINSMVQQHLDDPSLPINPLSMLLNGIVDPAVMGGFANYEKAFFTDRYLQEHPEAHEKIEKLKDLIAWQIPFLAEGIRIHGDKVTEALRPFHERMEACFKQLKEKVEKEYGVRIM
Excerpt: Pharmacological Test 1 (In Vitro GEF Assay)
DOCK1, DOCK2, and DOCK5, which are DOCK-A subfamily members, catalyze the GTP-GDP exchange reaction for Rac via the DHR-2 domain to activate Rac.
The in vitro GEF assay referred to in this specification used a labeled GTP (Bodipy-FL-GTP, Invitrogen), whose fluorescence intensity increases when bound to Rac.
Polypeptide fragments that correspond to the DHR-2 domain of DOCK1, DOCK2, or DOCK5 were expressed in E. coli Arctic express (DE3) cells as N-terminal Histidine-SUMO tag-fused recombinant proteins and purified by affinity column chromatography on nickel-NTA columns.
Rac was expressed in E. coli BL21 (DE3) cells as an N-terminal GST tag-fused recombinant protein and purified by affinity column chromatography on glutathione-Sepharose columns.
Subsequently, a reaction solution A containing 20 mM of MES-NaOH, 150 mM of NaCl, 10 mM of MgCl2, and 20 μM of GDP, and having an adjusted pH of 7.0 was incubated at room temperature for 30 minutes while being protected from light in the presence of each of the polypeptide fragments (DHR-2 domains) prepared above and each pyridinone compound or CPYPP dissolved at a predetermined concentration in DMSO or DMSO alone (control) to thus prepare GEF pretreated products. In all of the samples, the final DMSO concentration was adjusted to 3%.
Thereafter, 15 μM of Rac prepared above was added to the reaction solution A and directly allowed to stand on ice for 30 minutes to form a GDP-Rac complex.
Bodipy-FL-GTP was added to 100 μL of the reaction solution A containing the thus prepared GDP-Rac complex to a concentration of 3.6 μM, followed by equilibration at 30° C. for 2 minutes. After equilibration, 50 μL of the pretreated GEF was added for reaction at 30° C.
Changes in fluorescence intensity of Bodipy-FL-GTP were monitored during the reaction using an XS-N (Molecular Devices) or an Enspire spectrofluorometer (Perkin Elmer) (excitation wavelength: 488 nm, emission wavelength: 514 nm). The measured values were corrected so that the fluorescence intensity at the time that the reaction was initiated (0 seconds) was 0.
Then, an approximate curve (hyperbola) was obtained by plotting the calculated correction values on the y axis and the time (t) on the x axis using GraphPad Prism5 (GraphPad software), and the slope at t=0 to 10 seconds was considered to be an initial velocity of guanine nucleotide exchange reaction. The IC50 value was calculated taking the initial reaction velocity of the control, to which only a solvent (DMSO) was added, as 100%.

[2] = system: human fibrosarcoma cell line (HT-1080); assay: cellular invasion inhibition assay (Matrigel chamber); assay type: cell-based; conditions: FIG. 12(C)
Description: (§1) Pharmacological Test 2 (Cellular Invasion Inhibition Assay)
(§2) Three hundred microliters of a suspension of a mouse lung carcinoma cell line (3LL), a human fibrosarcoma cell line (HT-1080), or a human colon cancer cell line (DLD-1) in DMEM (serum free) was placed in the upper chamber with Matrigel (BD Biosciences) equilibrated with DMEM (serum free) for 120 minutes, while 500 μL of DMEM (with 10% FCS) was placed in the lower chamber. Each pyridinone compound or CPYPP dissolved at a predetermined concentration in DMSO was added to the culture media in both the upper and lower chambers. As a control, DMSO alone was added to the media. In all of the experiments, the final DMSO concentration was adjusted to 0.2%.
(§3) After the resulting products were cultured at 37° C. under 5% CO2 for 22 hours, the chambers were removed, and the culture media were removed. […] After staining, the inserts were cut out with a blade to prepare slides, and the cells were counted under an optical microscope.
(§4) The results were evaluated based on percent cell invasion (%: Invasion) and percent inhibition (%: inhibition). The percent cell invasion was obtained by converting the number of invading cells under each condition to percentage, taking the number of invading cells in the control, to which DMSO was added alone, as 100%; and the percent inhibition was obtained by deducting the percent cell invasion from 100.

[3] = system: mouse lung carcinoma cell line (3LL); assay: as above; assay type: cell-based; conditions: 3LL cells; for inhibition of cancer cell (3LL) invasion: 22 hours, compared to DMSO; for IC50: Mus musculus, FIG. 12(B), read-out: IC50 value calculated from cancer cell invasion inhibition
Description: as §1, §2, §3, §4

[4] = mouse body weight in the lung metastasis experiment; assay type: in vivo; conditions: 0.2, 0.6 or 2 mg/mouse iv, FIG. 17(D)
Description: (§5) Pharmacological Test 8 (Experiment for Inhibition of Lung Metastasis of Mouse Melanoma Cells)
(§6) Mouse melanoma B16F10 cells suspended in 200 μL of PBS(−) were injected (2.5 or 5×10^5 cells per mouse) into the tail vein of C57BL/6 mice (6 weeks old, female). […] For a control group, an equivalent amount of a solvent (a liquid mixture of PBS/CremophoreEL/ethanol (6:1:1)) alone was administered. The administration was performed 4 times in total: immediately before the cell transplantation, and day 1, day 3, and day 5 after the transplantation. Fourteen days after the first administration, the lung was excised from each mouse, and the number of tumor metastatic foci at the lung surface was counted.

[5] = system: human colon cancer cell line (DLD-1); assay: cellular invasion inhibition assay (Matrigel chamber); assay type: cell-based; conditions: FIG. 12(D)
Description: as §1, §2, §3, §4

[6] = system: mouse melanoma B16F10 cells; assay: inhibition of lung metastasis of mouse melanoma cells; assay type: in vivo
Description: as §5, §6

Row | SMILES | selectivity of GEF inhibition to DOCK1 versus DOCK2 and DOCK5 [1] | inhibition of HT-1080 cell invasion [2] | inhibition of cancer cell (3LL) invasion [3] | IC50 [3] | mouse body weight [4] | inhibition of DLD-1 cell invasion [5] | metastasis of melanoma cells to the lung ([6]; C57BL/6 mice, 2 mg/mouse iv, 4 times, FIG. 17(B)) | number of cells that underwent metastasis to the lung, reduced to ([6]; dose of about 0.2 mg to a mouse, iv 4 times, FIG. 17(C))
1 | O=C(Cn1cc(S(=O)(=O)N2CCCC2)ccc1=O)c1ccc(-c2ccc3ccccc3c2)cc1 [TS-28, 1-(2-(4-(naphthalen-2-yl)phenyl)-2-oxoethyl)-5-(pyrrolidin-1-ylsulfonyl)pyridin-2(1H)-one] | high selectivity to DOCK1 | inhibit HT-1080 cell invasion | significantly excellent inhibitory effect; also recorded: inhibit cancer cell invasion in a concentration-dependent manner | 5.6 µM |  |  |  | 
2 | O=C(Cn1cc(S(=O)(=O)N2CCCC2)ccc1=O)c1ccc(-c2cccc(C(F)(F)F)c2)cc1 [TS-45, 1-(2-oxo-2-(3′-(trifluoromethyl)-[1,1′-biphenyl]-4-yl)ethyl)-5-(pyrrolidin-1-ylsulfonyl)pyridin-2(1H)-one] | high selectivity to DOCK1 | inhibit HT-1080 cell invasion | significantly excellent inhibitory effect; also recorded: inhibit cancer cell invasion in a concentration-dependent manner | 3 µM | not affected | inhibits DLD-1 cell invasion | significantly inhibited | about 20%
